According to patent US12180187B2, “1-phenyl-5-azinylpyrazolyl-3-oxyalkyl acids and their use for controlling unwanted plant growth” (BAYER AKTIENGESELLSCHAFT, priority 2019, dated 2024):

Legend:
[1] = tested on: DIGSA; assay: Pre-emergence action at 320 g/ha against DIGSA; format: in vivo, Digitaria sanguinalis; details: visual scoring after about 3 weeks vs untreated controls
Method in brief: (§1)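 Weed seeds sown in pots and covered with soil; compounds formulated as WP or EC were sprayed onto the soil surface as aqueous suspension or emulsion with 0.5% additive at 600 l/ha water. Pots kept in greenhouse; activity scored visually after about 3 weeks versus untreated controls (100% = plants dead, 0% = like control).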

[2] = tested on: POLCO; assay: Post-emergence action at 320 g/ha against POLCO; format: in vivo, Fallopia convolvulus (Polygonum convolvulus); details: visual rating about 3 weeks after treatment vs untreated controls
Method in brief: (§2)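 Visual % activity vs untreated controls (0% = like control, 100% = plants dead), scored ~3 wk after treatment. Plants were grown in sandy loam in a greenhouse and sprayed on green parts at the one-leaf stage (2–3 wk post-sowing). Spray: WP or EC in water, 0.5% additive, 600 l/ha.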

[3] = tested on: AVEFA; assay: Post-emergence action at 320 g/ha against AVEFA; format: in vivo; details: visual rating about 3 weeks after treatment vs untreated controls
Method in brief: as §2

[4] = tested on: SETVI; assay: Pre-emergence action at 320 g/ha against SETVI; format: in vivo, Setaria viridis; details: visual scoring after about 3 weeks vs untreated controls
Method in brief: as §1

[5] = tested on: VERPE; assay: Pre-emergence action at 320 g/ha against VERPE; format: in vivo, Veronica persica; details: visual scoring after about 3 weeks vs untreated controls
Method in brief: as §1

[6] = tested on: AMARE; assay: Pre-emergence action at 320 g/ha against AMARE; format: in vivo, Amaranthus retroflexus; details: visual scoring after about 3 weeks vs untreated controls
Method in brief: as §1

[7] = tested on: LOLRI; assay: Pre-emergence action at 320 g/ha against LOLRI; format: in vivo, Lolium rigidum; details: visual scoring after about 3 weeks vs untreated controls
Method in brief: as §1

[8] = tested on: POLCO; assay: Pre-emergence action at 320 g/ha against POLCO; format: in vivo, Fallopia convolvulus (Polygonum convolvulus); details: visual scoring after about 3 weeks vs untreated controls
Method in brief: as §1

[9] = tested on: ALOMY; assay: Post-emergence action against ALOMY, 320 g/ha; format: in vivo, Alopecurus myosuroides; details: dosage 320 g/ha, visual rating about 3 weeks after treatment vs untreated controls (100% = plants died)
Method in brief: as §2

[10] = tested on: VIOTR; assay: Post-emergence action at 320 g/ha against VIOTR; format: in vivo, Viola tricolor; details: visual rating about 3 weeks after treatment vs untreated controls
Method in brief: as §2

[11] = tested on: AVEFA; assay: Pre-emergence action at 320 g/ha against AVEFA; format: in vivo; details: visual scoring after about 3 weeks vs untreated controls
Method in brief: as §1

[12] = tested on: VIOTR; assay: Pre-emergence action at 320 g/ha against VIOTR; format: in vivo, Viola tricolor; details: dosage 320 g/ha
Method in brief: as §1

[13] = tested on: DIGSA; assay: Post-emergence action at 320 g/ha against DIGSA; format: in vivo, Digitaria sanguinalis; details: dosage 320 g/ha, visual rating about 3 weeks after treatment vs untreated controls (100% = plants died)
Method in brief: as §2

[14] = tested on: HORMU; assay: Pre-emergence action at 320 g/ha against HORMU; format: in vivo, Hordeum murinum; details: greenhouse, scored visually after about 3 weeks vs untreated controls, 100% = plants have died, 0% = like control plants
Text: (§3) b) Seeds of monocotyledonous and dicotyledonous weed plants and crop plants are placed in plastic or organic planting pots and covered with soil. The compounds of the invention, formulated in the form of wettable powders (WP) or as emulsion concentrates (EC), are then applied onto the surface of the covering soil as aqueous suspension or emulsion with addition of 0.5% additive at a water application rate of 600 l/ha (converted). After the treatment, the pots are placed in a greenhouse and kept under good growth conditions for the trial plants. After about 3 weeks, the effect of the preparations is scored visually in comparison with untreated controls as percentages. For example, 100% activity=the plants have died, 0% activity=like control plants. Tables 13 to 26 below show the effects of selected compounds of the general formula (I) on various harmful plants and at an application rate corresponding to 320 g/ha, which were obtained by the experimental procedure mentioned above.

[15] = tested on: MATIN; assay: Pre-emergence action at 320 g/ha against MATIN; format: in vivo, Tripleurospermum inodorum (Matricaria inodora); details: visual scoring after about 3 weeks vs untreated controls
Method in brief: as §1

[16] = tested on: PHBPU; assay: Pre-emergence action at 320 g/ha against PHBPU; format: in vivo; details: visual scoring after about 3 weeks vs untreated controls
Method in brief: as §1

[17] = tested on: ALOMY; assay: Pre-emergence action at 320 g/ha against ALOMY; format: in vivo, Alopecurus myosuroides; details: scored visually after about 3 weeks vs untreated controls (100% = plants have died)
Method in brief: as §1

[18] = tested on: SETVI; assay: Post-emergence action at 320 g/ha against SETVI; format: in vivo, Setaria viridis; details: visual rating about 3 weeks after treatment vs untreated controls
Method in brief: as §2

[19] = tested on: PHBPU; assay: Post-emergence action at 320 g/ha against PHBPU; format: in vivo; details: visual rating about 3 weeks after treatment vs untreated controls
Text: (§4) Accordingly, the compounds of the invention have good herbicidal action against a broad spectrum of weed grasses and broad-leaved weeds and are therefore suitable for controlling unwanted vegetation by the post-emergence method. • b) Seeds of monocotyledonous and dicotyledonous weeds and crop plants are placed in sandy loam in plastic or organic planting pots, covered with soil and cultivated in a greenhouse under controlled growth conditions. 2 to 3 weeks after sowing, the test plants are treated at the one-leaf stage. The compounds of the invention, formulated in the form of wettable powders (WP) or as emulsion concentrates (EC), are then sprayed onto the green parts of the plants as aqueous suspension or emulsion with addition of 0.5% additive at a water application rate of 600 l/ha (converted). After the test plants have been kept in the greenhouse under optimum growth conditions for about 3 weeks, the activity of the preparations is rated visually in comparison to untreated controls. For example, 100% activity=the plants have died, 0% activity=like control plants. Tables 39 to 49 below show the effects of selected compounds of the general formula (I) according to Tables 1 and 2 on various harmful plants and at an application rate corresponding to 320 g/ha, which were obtained by the experimental procedure mentioned above.

[20] = tested on: ECHCG; assay: Post-emergence action at 320 g/ha against ECHCG; format: in vivo, Echinochloa crus-galli; details: dosage 320 g/ha, visual rating about 3 weeks after treatment vs untreated controls (100% = plants died)
Method in brief: as §2

[21] = tested on: ECHGC; assay: Pre-emergence action at 320 g/ha against ECHGC; format: in vivo, Echinochloa crus-galli; details: visual scoring after about 3 weeks vs untreated controls
Method in brief: as §1

[22] = tested on: ABUTH; assay: Post-emergence action at 320 g/ha against ABUTH; format: in vivo, Abutilon theophrasti; details: visual rating about 3 weeks after treatment vs untreated controls
Text: as §4

[23] = tested on: HORMU; assay: Post-emergence action at 320 g/ha against HORMU; format: in vivo, Hordeum murinum; details: visual rating about 3 weeks after treatment vs untreated controls
Text: as §4

[24] = tested on: STEME; assay: Pre-emergence action at 320 g/ha against STEME; format: in vivo, Stellaria media; details: greenhouse, scored visually after about 3 weeks vs untreated controls, 100% = plants have died, 0% = like control plants
Text: as §3

With `CC(C)OC(=O)COc1nn(-c2ccccc2F)c(-c2ccc(F)nc2)c1Br` [VII-005] the “Pre-emergence action against DIGSA in %” value [1] was 100%, the “Post-emergence action against POLCO in %” value [2] was 80% and the “Post-emergence action against AVEFA in %” value [3] was 100%. For the same compound, the “Pre-emergence action against SETVI in %” value [4] was 100%, the “Pre-emergence action against VERPE in %” value [5] was 100% and the “Pre-emergence action against AMARE in %” value [6] was 100%. For the same compound, the “Pre-emergence action against LOLRI in %” value [7] was 100%, the “Pre-emergence action against POLCO in %” value [8] was 100% and the “Post-emergence action against ALOMY” value [9] was 100%. The “Post-emergence action against VIOTR in %” value [10] was 100%, the “Pre-emergence action against AVEFA in %” value [11] was 90% and the “Pre-emergence action against VIOTR in %” value [12] was 100%. For the same compound, the “Post-emergence action at 320 g/ha against DIGSA in %” value [13] was 90%, the “Pre-emergence action at 320 g/ha against HORMU in %” value [14] was 100% and the “Pre-emergence action against MATIN in %” value [15] was 100%. For the same compound, the “Pre-emergence action against PHBPU in %” value [16] was 80%, the “Pre-emergence action at 320 g/ha against ALOMY in %” value [17] was 100% and the “Post-emergence action against SETVI in %” value [18] was 80%. The “Post-emergence action against PHBPU in %” value [19] was 90%, the “Post-emergence action at 320 g/ha against ECHCG in %” value [20] was 90% and the “Pre-emergence action against ECHGC in %” value [21] was 100%. The “Post-emergence action against ABUTH in %” value [22] was 80%, the “Post-emergence action against HORMU in %” value [23] was 90% and the “Pre-emergence action at 320 g/ha against STEME in %” value [24] was 90%.
